Data from patent publication US5985900A, “Metalloproteinase inhibitors, pharmaceutical compositions containing them and their pharmaceutical uses” (Agouron Pharmaceuticals, Inc., priority 1998, dated 1999).
Read-outs that look alike come from different tables or passages of the source.

Assays:
Type in all cases: biochemical
[1] = biological target: T1, human collagenase-3 (Coll3) (Homo sapiens, UniProt P45452); assay: In vitro MMP inhibition assay (hydrolysis of fluorogenic MCA peptide substrate), collagenase-3; conditions: Table 1; Ki,app; MCA peptide substrate 10 μM, 37° C., pH 7.5, 2% DMSO
T1 construct: catalytic domain liberated with APMA
Experimental: The propeptide and catalytic domain of human collagenase-3 (Coll3) was expressed in E. coli as an N-terminal fusion protein with ubiquitin. After purification of the fusion from inclusion bodies, the catalytic domain was liberated by treatment with 2 mM APMA at room temperature overnight. Final purification was completed using copper chelate chromatography.
(§1) Assays were performed in assay buffer (50 mM Tricine pH 7.5, 200 mM sodium chloride, 10 mM calcium chloride, 0.5 mM zinc acetate containing 2% dimethyl sulfoxide (DMSO)) once the substrate and inhibitor were diluted into it. Stock solutions of inhibitors were prepared in 100% DMSO. Stock solutions of the substrate were prepared in 100% DMSO at a concentration of 6 mM.
(§2) The assay method was based on the hydrolysis of MCA-Pro-Leu-Gly-Leu-DPA-Ala-Arg-NH2 (American Peptide Co.) at 37° C. (see Knight, C. G. et al., FEBS, 1992, 296, 263-266). The fluorescence changes were monitored with a Perkin-Elmer LS-50B fluorimeter using an excitation wavelength of 328 nm and an emission wavelength of 393 nm. The substrate concentration used in the assays was 10 μM. The inhibitor was diluted into the assays from a solution in 100% DMSO, and controls substituted an equal volume of DMSO so that the final DMSO concentration from inhibitor and substrate dilution in all assays was 2%. […] Proper determination of steady-state rates of substrate cleavage required assay lengths of 60 minutes to allow for complete equilibration of the enzyme-inhibitor complex.
(§3) The Km for the MCA peptide substrate with the matrix metalloproteinases is quite high and exceeds its solubility under assay conditions. Consequently, the apparent Ki (Ki,app) was determined to describe the strength of inhibition. However, in this case, Ki,app would be essentially equal to Ki since [S]<<Km. For the determination of Ki,app, the concentration of the inhibitor was varied at a constant and low concentration of substrate and the steady-state rates of fluorescence change determined. In most cases absorptive quench due to the presence of ligand was not observed. For slow-binding inhibitors, onset of inhibition curves were collected for at least 45 minutes so that equilibrium was established. Steady-state rates of fluorescence change were obtained by fitting a curve to an equation for a single exponential decay containing a linear phase. The fitted value of the linear phase was taken as the steady-state rate. The steady-state rates were fitted to the Michaelis equation describing competitive inhibition by non-linear methods. Data resulting from tight-binding inhibition was analyzed, and Ki,app determined by fitting the data to the tight-binding equation of Morrison (Biochem. Biophys. Acta, vol. 185, pp. 269-286 (1969)) by non-linear methods.
(§4) All Ki values are in nM units.

[2] = biological target: human progelatinase A (GelA) (Homo sapiens, UniProt P08253); assay: In vitro MMP inhibition assay (hydrolysis of fluorogenic MCA peptide substrate), gelatinase A
Experimental: The catalytic and fibronectin-like portion of human progelatinase A (GelA) was expressed as a fusion protein with ubiquitin in E. Coli. Assays were carried out on autocatalytically activated material.
as §1, §2, §3, §4

[3] = biological target: T2, human collagenase-1 (HFC) (Homo sapiens, UniProt P03956); assay: In vitro MMP inhibition assay (hydrolysis of fluorogenic MCA peptide substrate), fibroblast collagenase-1; conditions: Table 1; Ki,app; MCA peptide substrate 10 μM, 37° C., pH 7.5, 2% DMSO
T2 sequence (P03956 100-269 limits assumed): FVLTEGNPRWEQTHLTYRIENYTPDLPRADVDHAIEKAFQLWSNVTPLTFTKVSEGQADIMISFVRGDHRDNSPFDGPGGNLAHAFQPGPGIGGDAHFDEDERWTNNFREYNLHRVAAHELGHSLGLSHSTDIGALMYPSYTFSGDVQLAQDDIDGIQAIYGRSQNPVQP
Experimental: The catalytic domain of human collagenase-1 was expressed as a fusion protein with ubiquitin in E. coli (see Gehring, E. R., J Biol. Chem., 1995, 270, 22507). After purification of the fusion protein, the fibroblast collagenase-1 catalytic domain (HFC) was released either by treatment with purified, active stromelysin-1 (1:50 wlw ratio), which generated nearly 100% N-terminal Phe1, or by autoprocessing the concentrated collagenase-1 fusion and then incubating at 37° C. for 1 hour. Final purification was completed using zinc chelate chromatography.
as §1, §2, §3, §4

[4] = biological target: human stromelysin (Sln) (Homo sapiens, UniProt P08254); assay: In vitro MMP inhibition assay (hydrolysis of fluorogenic MCA peptide substrate), stromelysin
Experimental: The catalytic domain of human stromelysin (Sln) was obtained by expression and purification of a C-terminally truncated prostromelysin-1 from E. coli host BL21 (see Marcy et al. Biochem., 1991, 30, 6476). The subsequent activation of the mature form (Sln) was completed with 2 mM APMA for 1 hour at 37° C., followed by separation using a sizing column.
as §1, §2, §3, §4

[5] = biological target: T3, Human matrilysin (Matr) (Homo sapiens, UniProt P09237); assay: In vitro MMP inhibition assay (hydrolysis of fluorogenic MCA peptide substrate), matrilysin; conditions: Table 1; Ki,app; MCA peptide substrate 10 μM, 37° C., pH 7.5, 2% DMSO; read-out: Matri Ki
T3 construct: catalytic domain liberated with APMA
T3 sequence (P09237 95-267): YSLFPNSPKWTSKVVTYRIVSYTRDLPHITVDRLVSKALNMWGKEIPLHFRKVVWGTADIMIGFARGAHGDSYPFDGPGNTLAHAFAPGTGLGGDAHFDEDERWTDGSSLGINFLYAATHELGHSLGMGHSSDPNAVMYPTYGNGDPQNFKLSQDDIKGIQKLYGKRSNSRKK
Experimental: Human matrilysin (Matr) was expressed in E. coli as a fusion protein with ubiquitin. After purification of the matrilysin/ubiquitin fusion from inclusion bodies, the catalytic domain was liberated by treatment with 2 mM APMA at 37° C. for 2 hours. Final purification was complete using copper chelate chromatography.
as §1, §2, §3, §4

[6] = Table 1, Ki,app, MCA peptide substrate 10 μM, 37° C., pH 7.5, 2% DMSO, read-out: Gel A
[7] = Table 1, Ki,app, MCA peptide substrate 10 μM, 37° C., pH 7.5, 2% DMSO, read-out: Sin Ki

Sequence of human stromelysin (Sln) (P08254 100-272 limits assumed): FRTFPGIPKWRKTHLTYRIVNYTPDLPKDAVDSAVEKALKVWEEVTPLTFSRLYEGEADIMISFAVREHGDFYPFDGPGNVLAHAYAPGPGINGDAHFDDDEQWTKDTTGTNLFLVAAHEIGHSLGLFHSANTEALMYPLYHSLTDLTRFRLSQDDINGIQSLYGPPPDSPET
Sequence of human progelatinase A (GelA) (P08253 110-446 limits assumed): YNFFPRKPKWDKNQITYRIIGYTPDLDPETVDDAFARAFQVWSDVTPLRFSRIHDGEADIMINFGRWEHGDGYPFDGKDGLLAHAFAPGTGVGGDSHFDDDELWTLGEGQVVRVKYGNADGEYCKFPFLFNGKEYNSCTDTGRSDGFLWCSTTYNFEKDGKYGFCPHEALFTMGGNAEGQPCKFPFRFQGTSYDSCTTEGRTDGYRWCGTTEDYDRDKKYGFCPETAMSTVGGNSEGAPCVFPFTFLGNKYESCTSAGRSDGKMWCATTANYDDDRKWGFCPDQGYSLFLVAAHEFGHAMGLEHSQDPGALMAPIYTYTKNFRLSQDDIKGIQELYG

Compound	Ki [1] [nM]	Ki [2, 6] [nM]	Ki [3] [nM]	Ki [4, 7] [nM]	Ki [5] [nM]	Ki ([2]; Table 2, comparative example, gelatinase A, read-out: GELATINASE Kj) [nM]	Ki ([4]; Table 2, comparative example, read-out: STROMELYSIN Ki) [nM]
CC(C)(SCc1ccccn1)[C@@H](NS(=O)(=O)c1ccc(Oc2ccc(Br)cc2)cc1)C(=O)O [Example 3d, N-[4-(4-Bromophenoxy)benzenesulfonyl]--S--[(pyrid-2-yl)methyl]-D-penicillamine]	178	7	34000	1500	75000		
CC(C)(SCc1ccccc1)[C@@H](NS(=O)(=O)c1ccc(Oc2ccccc2)cc1)C(=O)NO [Example 9i, 2(S)--N-hydroxy-3-methyl-3-benzylsulfanyl-2-[(4-phenoxybenzenesulfonyl)amino]butanamide]	0.16	0.038	33	1.4	26		
CC(C)(C)OC(=O)CSC(C)(C)[C@@H](NS(=O)(=O)c1ccc(Oc2ccc(F)cc2)cc1)C(=O)NO [Example 9j, 2(S)--N-hydroxy-3-methyl-3-(t-butoxycarbonyl)methylsulfanyl-2-[(4-(4-fluorophenoxy)benzenesulfonyl)amino]butanamide]	0.091	0.048	33	1.6			
CC(C)(C)[C@H](NS(=O)(=O)c1ccc(Oc2ccccc2)cc1)C(=O)NO [Example 9k, 2(S)--N-hydroxy-3,3-dimethyl-2-[(4-phenoxybenzenesulfonyl)-amino]butanamide]	0.057	0.091	53	4.2	376		
CC(C)(C)[C@H](NS(=O)(=O)c1ccc(Oc2ccccn2)cc1)C(=O)NO [Example 10c]	4.6	5.1	960	71	2270		

Molecules with a lower Ki [3], results first:

Ki [1] [nM]	Ki [2, 6] [nM]	Ki [3] [nM]	Ki [4, 7] [nM]	Ki [5] [nM]	Ki ([2]; Table 2, comparative example, gelatinase A, read-out: GELATINASE Kj) [nM]	Ki ([4]; Table 2, comparative example, read-out: STROMELYSIN Ki) [nM]	Compound
0.059	0.109	30	1.8	120			CC(C)(C)C(NS(=O)(=O)c1ccc(Oc2ccc(F)cc2)cc1)C(=O)NO (stereo in doubt) [Example 9l, 2(S)--N-hydroxy-3,3-dimethyl-2-[(4-(4-fluorophenoxy)benzenesulfonyl)-amino]butanamide]
0.042	0.065	30	1.5	115			CSC(C)(C)[C@@H](NS(=O)(=O)c1ccc(Oc2ccc(Cl)cc2)cc1)C(=O)NO [Example 9b, 2(S)--N-hydroxy-3-methyl-3-methylsulfanyl-2-[(4-(4-chlorophenoxy)benzenesulfonyl)amino]butanamide]
0.028	0.049	24	1				CC(C)([C@@H](NS(=O)(=O)c1ccc(Oc2ccc(Br)cc2)cc1)C(=O)NO)[S+]([O-])Cc1ccccn1 (mixture of isomers) [Example 11, 2(S), S(R/S)--N-hydroxy-3-methyl-3-(pyrid-2-yl) methylsulfinyl-2-[(4-(4-bromophenoxy)benzenesulfonyl)amino]butanamide]
0.034	0.09	21	1	93	0.09	1	CC(C)(C)C(NS(=O)(=O)c1ccc(Oc2ccc(Cl)cc2)cc1)C(=O)NO (stereo in doubt) [Example 9m, 2(S)--N-hydroxy-3,3-dimethyl-2-[(4-(4-chlorophenoxy)benzenesulfonyl)amino]butanamide]
0.057	0.031	17	0.84				CC(C)(SCc1ccccn1)[C@@H](NS(=O)(=O)c1ccc(Oc2ccc(F)cc2)cc1)C(=O)NO [Example 9h, 2(S)--N-hydroxy-3-methyl-3-(pyrid-2-yl)methylsulfanyl-2-[(4-(4-fluorophenoxy)benzenesulfonyl)amino]butanamide]
		4.1	0.26	7.9			CC(C)(SCc1ccccn1)[C@@H](NS(=O)(=O)c1ccc(Oc2ccc(Br)cc2)cc1)C(=O)NO [Example 9e, 2(S)--N-hydroxy-3-methyl-3-(pyrid-2-yl)methylsulfanyl-2-[(4-(4-bromophenoxy)benzenesulfonyl)amino]butanamide]
